Species: Rattus norvegicus
Experiment: DrugMatrix - Regimen: Daily Repeat
Type: toxicity, organism-based, Sprague-Dawley
Design: regimen Daily Repeat, gender Male, age 6-8 weeks
Conditions: in vivo, po, 56 mg/kg, route oral GAVAGE, […]
[1] = 72 h, tissue Plasma, dose level Low, time 3 day
[2] = 120 h, tissue Blood, dose level High, time 5 day
[3] = 120 h, tissue Blood, dose level Low, time 5 day
[4] = 120 h, tissue Plasma, dose level High, time 5 day
[5] = 120 h, tissue Plasma, dose level Low, time 5 day
[6] = tissue Blood, dose level High, time 28 day
[7] = tissue Plasma, dose level High, time 28 day

NC[C@@H]1O[C@H](O[C@H]2[C@@H](O)[C@H](O[C@@H]3[C@@H](O)[C@H](N)C[C@H](N)[C@H]3O[C@H]3O[C@H](CN)[C@@H](O)[C@H](O)[C@H]3N)O[C@@H]2CO)[C@H](N)[C@@H](O)[C@@H]1O [FRAMYCETIN]
CREATININE [1]: 0.19 mg/dL
GLUCOSE [1]: 156.33 mg/dL
LACTATE DEHYDROGENASE [1]: 107.33 u/L
LIPASE [1]: 10.33 u/L
PHOSPHORUS [1]: 10.8 mg/dL
POTASSIUM [1]: 5.83 MEQ/L
SODIUM [1]: 143.17 MEQ/L
TOTAL BILIRUBIN [1]: 0.1 mg/dL
TOTAL PROTEIN [1]: 5.97 G/DL
URIC ACID [1]: 0.4 mg/dL
BASOPHIL [2]: 0.36%
EOSINOPHIL [2]: 0.6%
ERYTHROCYTE COUNT [2]: 7.45 x10E6/uL
HEMATOCRIT [2]: 49.44%
HEMOGLOBIN [2]: 15.6 G/DL
LEUKOCYTE COUNT [2]: 6.84 x10E3/uL
LYMPHOCYTE [2]: 82.08%
MEAN CORPUSCULAR HEMOGLOBIN [2]: 20.94 pg
MEAN CORPUSCULAR HEMOGLOBIN CONCENTRATION [2]: 31.58 G/DL
MEAN CORPUSCULAR VOLUME [2]: 66.34 fL
MONOCYTE [2]: 1.68%
NEUTROPHIL [2]: 14.3%
PLATELET COUNT [2]: 1274.6 x10E3/uL
ABSOLUTE BASOPHIL [3]: 0 CELLS/uL
ABSOLUTE EOSINOPHIL [3]: 0 CELLS/uL
ABSOLUTE LYMPHOCYTE [3]: 7805 CELLS/uL
ABSOLUTE MONOCYTE [3]: 76.67 CELLS/uL
ABSOLUTE SEGMENTED NEUTROPHIL [3]: 785 CELLS/uL
BASOPHIL [3]: 0%
EOSINOPHIL [3]: 0%
ERYTHROCYTE COUNT [3]: 5.67 x10E6/uL
HEMATOCRIT [3]: 34.13%
HEMOGLOBIN [3]: 13.3 G/DL
LEUKOCYTE COUNT [3]: 8.67 x10E3/uL
LYMPHOCYTE [3]: 89.33%
MEAN CORPUSCULAR HEMOGLOBIN [3]: 23.47 pg
MEAN CORPUSCULAR HEMOGLOBIN CONCENTRATION [3]: 38.97 G/DL
MEAN CORPUSCULAR VOLUME [3]: 60.2 fL
MONOCYTE [3]: 1%
NEUTROPHIL [3]: 9.67%
NUCLEATED RED BLOOD CELLS [3]: 0 /100WBC
PLATELET COUNT [3]: 1077 x10E3/uL
ALANINE AMINOTRANSFERASE [4]: 29 u/L
ALBUMIN [4]: 3.74 G/DL
ALKALINE PHOSPHATASE [4]: 336 u/L
ASPARTATE AMINOTRANSFERASE [4]: 73.8 u/L
BLOOD UREA NITROGEN [4]: 6.6 mg/dL
CHLORIDE [4]: 109.6 MEQ/L
CHOLESTEROL [4]: 60.6 mg/dL
CREATINE PHOSPHOKINASE [4]: 307 u/L
CREATININE [4]: 0.28 mg/dL
GLUCOSE [4]: 128.6 mg/dL
PHOSPHORUS [4]: 13.88 mg/dL
POTASSIUM [4]: 6.96 MEQ/L
SODIUM [4]: 151.8 MEQ/L
TOTAL BILIRUBIN [4]: 0.16 mg/dL
TOTAL PROTEIN [4]: 6.22 G/DL
ALANINE AMINOTRANSFERASE [5]: 68.67 u/L
ALBUMIN [5]: 4.03 G/DL
ALKALINE PHOSPHATASE [5]: 434 u/L
ASPARTATE AMINOTRANSFERASE [5]: 94.67 u/L
BLOOD UREA NITROGEN [5]: 12 mg/dL
CARBON DIOXIDE [5]: 26.33 mmol/L
CHLORIDE [5]: 104 MEQ/L
CHOLESTEROL [5]: 74.67 mg/dL
CREATINE PHOSPHOKINASE [5]: 481.67 u/L
CREATININE [5]: 0.23 mg/dL
GLUCOSE [5]: 156.33 mg/dL
LACTATE DEHYDROGENASE [5]: 224 u/L
LIPASE [5]: 10.33 u/L
PHOSPHORUS [5]: 10.57 mg/dL
POTASSIUM [5]: 6.71 MEQ/L
SODIUM [5]: 148.83 MEQ/L
TOTAL BILIRUBIN [5]: 0.17 mg/dL
TOTAL PROTEIN [5]: 6.03 G/DL
URIC ACID [5]: 1.13 mg/dL
BASOPHIL [6]: 0.48%
EOSINOPHIL [6]: 0.51%
ERYTHROCYTE COUNT [6]: 8.01 x10E6/uL
HEMATOCRIT [6]: 48.92%
HEMOGLOBIN [6]: 15.88 G/DL
LEUKOCYTE COUNT [6]: 12.82 x10E3/uL
LYMPHOCYTE [6]: 83.46%
MEAN CORPUSCULAR HEMOGLOBIN [6]: 19.85 pg
MEAN CORPUSCULAR HEMOGLOBIN CONCENTRATION [6]: 32.47 G/DL
MEAN CORPUSCULAR VOLUME [6]: 61.12 fL
MONOCYTE [6]: 1.54%
NEUTROPHIL [6]: 12.95%
PLATELET COUNT [6]: 1208.1 x10E3/uL
ALANINE AMINOTRANSFERASE [7]: 26.9 u/L
ALBUMIN [7]: 3.85 G/DL
ALKALINE PHOSPHATASE [7]: 200.9 u/L
ASPARTATE AMINOTRANSFERASE [7]: 62.4 u/L
BLOOD UREA NITROGEN [7]: 11 mg/dL
CHLORIDE [7]: 107.1 MEQ/L
CHOLESTEROL [7]: 54.5 mg/dL
CREATINE PHOSPHOKINASE [7]: 177.2 u/L
CREATININE [7]: 0.38 mg/dL
GLUCOSE [7]: 135.2 mg/dL
PHOSPHORUS [7]: 11.16 mg/dL
POTASSIUM [7]: 6.5 MEQ/L
SODIUM [7]: 151.5 MEQ/L
TOTAL BILIRUBIN [7]: 0.22 mg/dL
TOTAL PROTEIN [7]: 6.52 G/DL

From ChEMBL document CHEMBL3885881, “DrugMatrix”
